{"source": "PubChem BioAssay AID1963983", "about": "(Molecular Pharmacology Branch, DTP, NCI, 2024)", "system": "186277-243-T-J2-PDC multi-cell spheroid viability", "assay": "Anticancer human tumor 186277-243-T-J2-PDC patient-derived colon adenocarcinoma cell line growth inhibition [PI3K]", "details": "for viability, T/C: stronger effect = lower value; for pIC50: curve of first compound", "summary_of_the_method": "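Combination activity was assessed by viability in multicellular tumor spheroids carrying HUVEC and MSC components. Agents were tested with PI3K inhibitors from a Cmax-based top dose (or 10 microM) downward in half-log increments.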", "key": {"[1]": {"details": "second compound 0.0316 µM, first compound 0.000316 µM"}, "[2]": {"details": "second compound 0.0316 µM, first compound 0.001 µM"}, "[3]": {"details": "second compound 0.0316 µM, first compound 0.00316 µM"}, "[4]": {"details": "second compound 0.0316 µM, first compound 0.01 µM"}, "[5]": {"details": "second compound 0.0316 µM, first compound 0.0316 µM"}, "[6]": {"details": "second compound 0.0316 µM, first compound 0.1 µM"}, "[7]": {"details": "second compound 0.1 µM, first compound 0.000316 µM"}, "[8]": {"details": "second compound 0.1 µM, first compound 0.001 µM"}, "[9]": {"details": "second compound 0.1 µM, first compound 0.00316 µM"}, "[10]": {"details": "second compound 0.1 µM, first compound 0.01 µM"}, "[11]": {"details": "second compound 0.1 µM, first compound 0.0316 µM"}, "[12]": {"details": "second compound 0.1 µM, first compound 0.1 µM"}, "[13]": {"details": "second compound 0.316 µM, first compound 0.000316 µM"}, "[14]": {"details": "second compound 0.316 µM, first compound 0.001 µM"}, "[15]": {"details": "second compound 0.316 µM, first compound 0.00316 µM"}, "[16]": {"details": "second compound 0.316 µM, first compound 0.01 µM"}, "[17]": {"details": "second compound 0.316 µM, first compound 0.0316 µM"}, "[18]": {"details": "second compound 0.316 µM, first compound 0.1 µM"}, "[19]": {"details": "second compound 1 µM, first compound 0.000316 µM"}, "[20]": {"details": "second compound 1 µM, first compound 0.001 µM"}, "[21]": {"details": "second compound 1 µM, first compound 0.00316 µM"}, "[22]": {"details": "second compound 1 µM, first compound 0.01 µM"}, "[23]": {"details": "second compound 1 µM, first compound 0.0316 µM"}, "[24]": {"details": "second compound 1 µM, first compound 0.1 µM"}, "[25]": {"details": "second compound 3.16 µM, first compound 0.000316 µM"}, "[26]": {"details": "second compound 3.16 µM, first compound 0.001 µM"}, "[27]": {"details": "second compound 3.16 µM, first compound 0.00316 µM"}, "[28]": {"details": "second compound 3.16 µM, first compound 0.01 µM"}, "[29]": {"details": "second compound 3.16 µM, first compound 0.0316 µM"}, "[30]": {"details": "second compound 3.16 µM, first compound 0.1 µM"}, "[31]": {"details": "second compound 10 µM, first compound 0.000316 µM"}, "[32]": {"details": "second compound 10 µM, first compound 0.001 µM"}, "[33]": {"details": "second compound 10 µM, first compound 0.00316 µM"}, "[34]": {"details": "second compound 10 µM, first compound 0.01 µM"}, "[35]": {"details": "second compound 10 µM, first compound 0.0316 µM"}, "[36]": {"details": "second compound 10 µM, first compound 0.1 µM"}}, "note": "pIC50: −log10 of the molar value.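 Further: spheroids exposed to compounds for seven days before viability reading.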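 Wherever viability, T/C is given: 100% = DMSO vehicle control viability.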", "data": [{"smiles": "CCCS(=O)(=O)Nc1ccc(F)c(C(=O)c2c[nH]c3ncc(-c4ccc(Cl)cc4)cc23)c1F", "values": [{"measurement": "viability, T/C", "setting": "compound 0.0316 µM", "value": "94.8% [middle of 4 runs]"}, {"measurement": "viability, T/C", "setting": "compound 0.1 µM", "value": "89.2% [middle of 4 runs]"}, {"measurement": "viability, T/C", "setting": "compound 0.316 µM", "value": "86.2% [middle of 4 runs]"}, {"measurement": "viability, T/C", "setting": "compound 1 µM", "value": "86.7% [middle of 4 runs]"}, {"measurement": "viability, T/C", "setting": "compound 3.16 µM", "value": "84.1% [middle of 4 runs]"}, {"measurement": "viability, T/C", "setting": "compound 10 µM", "value": "6.39% [middle of 4 runs]"}, {"measurement": "IC50", "setting": "curve of compound", "value": "5.39 µM [middle of 4 runs]"}]}, {"smiles": "Cn1ncnc1[C@H]1c2n[nH]c(=O)c3cc(F)cc(c23)N[C@@H]1c1ccc(F)cc1", "note": "+ CC(Nc1ncnc2nc[nH]c12)c1cc2cccc(Cl)c2c(=O)n1-c1ccccc1", "values": [{"measurement": "pIC50", "setting": "second compound 0.0316 µM", "value": "< 7.00"}, {"measurement": "pIC50", "setting": "second compound 0.1 µM", "value": "< 7.00"}, {"measurement": "pIC50", "setting": "second compound 0.316 µM", "value": "< 7.00"}, {"measurement": "pIC50", "setting": "second compound 1 µM", "value": "< 7.00"}, {"measurement": "pIC50", "setting": "second compound 3.16 µM", "value": "< 7.00"}, {"measurement": "pIC50", "setting": "second compound 10 µM", "value": "< 7.00"}, {"measurement": "viability, T/C", "setting": "[1]", "value": 88.3, "unit": "%"}, {"measurement": "viability, T/C", "setting": "[2]", "value": 94.7, "unit": "%"}, {"measurement": "viability, T/C", "setting": "[3]", "value": 86.8, "unit": "%"}, {"measurement": "viability, T/C", "setting": "[4]", "value": 100, "unit": "%"}, {"measurement": "viability, T/C", "setting": "[5]", "value": 104, "unit": "%"}, {"measurement": "viability, T/C", "setting": "[6]", "value": 88.9, "unit": "%"}, {"measurement": "viability, T/C", "setting": "[7]", "value": 93.2, "unit": "%"}, {"measurement": "viability, T/C", "setting": "[8]", "value": 111, "unit": "%"}, {"measurement": "viability, T/C", "setting": "[9]", "value": 94.9, "unit": "%"}, {"measurement": "viability, T/C", "setting": "[10]", "value": 103, "unit": "%"}, {"measurement": "viability, T/C", "setting": "[11]", "value": 99.9, "unit": "%"}, {"measurement": "viability, T/C", "setting": "[12]", "value": 99.3, "unit": "%"}, {"measurement": "viability, T/C", "setting": "[13]", "value": 93.5, "unit": "%"}, {"measurement": "viability, T/C", "setting": "[14]", "value": 107, "unit": "%"}, {"measurement": "viability, T/C", "setting": "[15]", "value": 96.1, "unit": "%"}, {"measurement": "viability, T/C", "setting": "[16]", "value": 92.5, "unit": "%"}, {"measurement": "viability, T/C", "setting": "[17]", "value": 91.3, "unit": "%"}, {"measurement": "viability, T/C", "setting": "[18]", "value": 85, "unit": "%"}, {"measurement": "viability, T/C", "setting": "[19]", "value": 89.3, "unit": "%"}, {"measurement": "viability, T/C", "setting": "[20]", "value": 95.5, "unit": "%"}, {"measurement": "viability, T/C", "setting": "[21]", "value": 114, "unit": "%"}, {"measurement": "viability, T/C", "setting": "[22]", "value": 97.4, "unit": "%"}, {"measurement": "viability, T/C", "setting": "[23]", "value": 87, "unit": "%"}, {"measurement": "viability, T/C", "setting": "[24]", "value": 84.4, "unit": "%"}, {"measurement": "viability, T/C", "setting": "[25]", "value": 108, "unit": "%"}, {"measurement": "viability, T/C", "setting": "[26]", "value": 107, "unit": "%"}, {"measurement": "viability, T/C", "setting": "[27]", "value": 102, "unit": "%"}, {"measurement": "viability, T/C", "setting": "[28]", "value": 84.5, "unit": "%"}, {"measurement": "viability, T/C", "setting": "[29]", "value": 101, "unit": "%"}, {"measurement": "viability, T/C", "setting": "[30]", "value": 99.1, "unit": "%"}, {"measurement": "viability, T/C", "setting": "[31]", "value": 99.6, "unit": "%"}, {"measurement": "viability, T/C", "setting": "[32]", "value": 90.6, "unit": "%"}, {"measurement": "viability, T/C", "setting": "[33]", "value": 84.4, "unit": "%"}, {"measurement": "viability, T/C", "setting": "[34]", "value": 86, "unit": "%"}, {"measurement": "viability, T/C", "setting": "[35]", "value": 88.6, "unit": "%"}, {"measurement": "viability, T/C", "setting": "[36]", "value": 85, "unit": "%"}]}, {"smiles": "CC(=O)c1c(C)c2cnc(Nc3ccc(N4CCNCC4)cn3)nc2n(C2CCCC2)c1=O", "note": "+ CC(Nc1ncnc2nc[nH]c12)c1cc2cccc(Cl)c2c(=O)n1-c1ccccc1", "values": [{"measurement": "pIC50", "setting": "second compound 0.0316 µM", "value": "< 7.00"}, {"measurement": "pIC50", "setting": "second compound 0.1 µM", "value": "< 7.00"}, {"measurement": "pIC50", "setting": "second compound 0.316 µM", "value": "< 7.00"}, {"measurement": "pIC50", "setting": "second compound 1 µM", "value": "< 7.00"}, {"measurement": "pIC50", "setting": "second compound 3.16 µM", "value": "< 7.00"}, {"measurement": "pIC50", "setting": "second compound 10 µM", "value": "< 7.00"}, {"measurement": "viability, T/C", "setting": "[1]", "value": 87.2, "unit": "%"}, {"measurement": "viability, T/C", "setting": "[2]", "value": 96.8, "unit": "%"}, {"measurement": "viability, T/C", "setting": "[3]", "value": 114, "unit": "%"}, {"measurement": "viability, T/C", "setting": "[4]", "value": 97.2, "unit": "%"}, {"measurement": "viability, T/C", "setting": "[5]", "value": 109, "unit": "%"}, {"measurement": "viability, T/C", "setting": "[6]", "value": 113, "unit": "%"}, {"measurement": "viability, T/C", "setting": "[7]", "value": 87.2, "unit": "%"}, {"measurement": "viability, T/C", "setting": "[8]", "value": 91.5, "unit": "%"}, {"measurement": "viability, T/C", "setting": "[9]", "value": 99, "unit": "%"}, {"measurement": "viability, T/C", "setting": "[10]", "value": 96, "unit": "%"}, {"measurement": "viability, T/C", "setting": "[11]", "value": 116, "unit": "%"}, {"measurement": "viability, T/C", "setting": "[12]", "value": 133, "unit": "%"}, {"measurement": "viability, T/C", "setting": "[13]", "value": 96.9, "unit": "%"}, {"measurement": "viability, T/C", "setting": "[14]", "value": 97.2, "unit": "%"}, {"measurement": "viability, T/C", "setting": "[15]", "value": 97.7, "unit": "%"}, {"measurement": "viability, T/C", "setting": "[16]", "value": 107, "unit": "%"}, {"measurement": "viability, T/C", "setting": "[17]", "value": 118, "unit": "%"}, {"measurement": "viability, T/C", "setting": "[18]", "value": 127, "unit": "%"}, {"measurement": "viability, T/C", "setting": "[19]", "value": 96.3, "unit": "%"}, {"measurement": "viability, T/C", "setting": "[20]", "value": 96.8, "unit": "%"}, {"measurement": "viability, T/C", "setting": "[21]", "value": 107, "unit": "%"}, {"measurement": "viability, T/C", "setting": "[22]", "value": 107, "unit": "%"}, {"measurement": "viability, T/C", "setting": "[23]", "value": 122, "unit": "%"}, {"measurement": "viability, T/C", "setting": "[24]", "value": 118, "unit": "%"}, {"measurement": "viability, T/C", "setting": "[25]", "value": 98.2, "unit": "%"}, {"measurement": "viability, T/C", "setting": "[26]", "value": 104, "unit": "%"}, {"measurement": "viability, T/C", "setting": "[27]", "value": 89.1, "unit": "%"}, {"measurement": "viability, T/C", "setting": "[28]", "value": 110, "unit": "%"}, {"measurement": "viability, T/C", "setting": "[29]", "value": 99.5, "unit": "%"}, {"measurement": "viability, T/C", "setting": "[30]", "value": 119, "unit": "%"}, {"measurement": "viability, T/C", "setting": "[31]", "value": 84, "unit": "%"}, {"measurement": "viability, T/C", "setting": "[32]", "value": 93.1, "unit": "%"}, {"measurement": "viability, T/C", "setting": "[33]", "value": 89.7, "unit": "%"}, {"measurement": "viability, T/C", "setting": "[34]", "value": 79.3, "unit": "%"}, {"measurement": "viability, T/C", "setting": "[35]", "value": 100, "unit": "%"}, {"measurement": "viability, T/C", "setting": "[36]", "value": 97.9, "unit": "%"}]}]}
